Several values for one entry are separate records, joined by “and”; a condition that tells them apart may be missing. Identical values can stand only once.
Legend:
Assay type in all cases: cell-based, human
CB CD34+ cells [1] = test: Ex vivo expansion of CB CD34+ cells with HDACIs, phenotypic analysis by flow cytometry; conditions: for fold expansion of CD34+ cells / fold expansion of CD34+CD90+ cells: cytokines
Source text: CB collections were purchased from the Placental Blood Program at the New York Blood Center. CB-MNCs were isolated by Ficoll-Hypaque density centrifugation, and CD34+ cells were purified by immunotnagnetic selection as previously described (Chaurasia et al., “Chromatin-Modifying Agents Promote the Ex vivo Production of Functional Human Erythroid Progenitor Cells,” Blood 117:4632-4641 (2011), which is hereby incorporated by reference in its entirety). Highly purified (90%-98%) PCs (4.0-5.0×10^4) were cultured in SF Stemline II (Sigma-Aldrich) culture medium or IMDM (Lonza) containing 30% FBS (HyClone Laboratories) supplemented with 150 ng/ml SCF, 100 ng/ml fms-like tyrosine kinase receptor 3 (FLT3 ligand), 100 ng/ml thrombopoietin (TPO), and 50 ng/ml interleukin 3 (IL-3) (R&D Systems) and incubated in a humidified incubator maintained at 37° C. with 5% CO2. […] The cell populations studied and the various conditions under which they were cultured are referred to by specific terms listed in Table 1. Viable PC and cultured cells were enumerated using the trypan blue exclusion method. The fold expansion of CD34+ cells or subpopulations was calculated based on the number of CD34+ cells determined to be present in an individual CB collection and the number of CD34+ cells that would have been generated if all of the CD34+ cells within that primary CB collection were cultured using the various culture conditions described. PC or cultured cells expanded in the presence or absence of HDACIs were stained with an anti-human CD34 mAb or an isotype-matched control mAb and analyzed using a FACSCanto II (BD). CD34+ cells were re-isolated using a CD34+ cell isolation kit, as previously described, for further phenotypic and functional analyses. All mAbs were purchased from BD Biosciences and Cell Signaling Technology. Phenotypic analyses ([…], […], and […]7) of the ex vivo-expanded cells after 7 days in control cultures or cytokines plus an HDACI were performed as previously described (Chaurasia et al., “Chromatin-Modifying Agents Promote the Ex vivo Production of Functional Human Erythroid Progenitor Cells,” Blood 117:4632-4641 (2011), which is hereby incorporated by reference in its entirety).

HDAC1 = test: HDAC protein levels in CB-MNCs, Western blot densitometry; conditions: 24 hr, SCR 8 μM, C433 80 μM, VPA 1.25 mM
HDAC4 = test: as above; conditions: 24 hr, SCR 8 μM, C433 80 μM, VPA 1.25 mM
Source text: Cellular proteins were separated by SDS-PAGE using Novex (Invitrogen) and transferred by iBlot (Invitrogen). The membranes were probed with mAbs against individual histone deacetylases (HDAC1, HDAC2, HDAC3, HDAC4, HDAC5, HDAC6, and β-actin; Cell Signaling Technology) and developed using a chemiluminescence system with HRP-conjugated secondary antibodies (Amersham Biosciences) according to the manufacturer's instructions.

ALDH activity = ALDH activity (Aldefluor) in expanded CB CD34+ cells; conditions: cytokines, 7 days
Source text: Increased ALDH activity is a characteristic of primitive hematopoietic cells and cancer stem cells (Hess et al., Functional Characterization of Highly Purified Human Hematopoietic Repopulating Cells Isolated According to Aldehyde Dehydrogenase Activity,” Blood 104:1648-1655 (2004); Lioznov et al., “Aldehyde Dehydrogenase Activity as a Marker for the Quality of Hematopoietic Stem Cell Transplants,” Bone Marrow Transplant 35:909-914 (2005); Storms et al., “Distinct Hematopoietic Progenitor Compartments are Delineated by the Expression of Aldehyde Dehydrogenase and CD34,” Blood 106:95-102 (2005); Aguila et al., “SALL4 is a Robust Stimulator for the Expansion of Hematopoietic Stem Cells,” Blood 118:576-585 (2011), which are hereby incorporated by reference in their entirety). To identify cell populations with high ALDH activity, an Aldefluor kit (StemCell Technologies Inc.) was used according to the manufacturer's instructions, Cells (1×10^6/ml) were suspended in assay buffer, then half of the cells were added to the Aldefluor substrate (test sample) and the remaining half was added to DEAB inhibitor (control sample). The test and control samples were incubated for 40 minutes at 37° C. Cells were subsequently stained with CD34-APC and/or CD117-PE mAbs or an isotype-matched IgG for an additional 20 minutes. Cells were washed and analyzed by a BD FACSCanto II Flow Cytometer.

CB CD34+ cells [2] = test: Effect of siRNA transfection on cell numbers and CD34+/CD34+CD90+ cells; conditions: VPA culture, 72 hrs after transfection
Protocol: CB CD34+ cells were treated with VPA under SF culture conditions. VPA-treated cells were transfected with individual SOX2, OCT4, NANOG, GAPDH, and scrambled siRNA or with a combination of SOX2, OCT4, and NANOG Silencer Select siRNAs (Invitrogen, CA). A GFP plasmid was included to determine the transfection efficiency according to the manufacturer's instructions for the Neon transfection system (Invitrogen).
After 72 hours of VPA treatment, cells (0.5×10^6 to 1×10^6) were washed in PBS and suspended in 8 μl of Neon resuspension buffer R. Individual siRNAs (2 μl, 10-30 nM) or a combination of SOX2, OCT4, NANOG (SON), or pcDNA6.2/EmGFP plasmid (200 ng; Invitrogen) were mixed with the 8 μl of cells according to the manufacturer's instructions. Cells were pulsed three times with a voltage of 1,400 and a width of 20 ms and immediately transferred to pre-warmed media supplemented with cytokines plus VPA. […]
In addition, cells treated with scrambled or combined SON siRNA were stained using human CD34 and CD90 mAbs, and the percentages of CD34+ and CD34+CD90+ cells were determined by flow cytometric analysis. […] SOX2, OCT4, NANOG, and ZIC3 protein expression levels following SON siRNA-mediated pluripotency gene knockdown were assessed by confocal microscopy as described above.

[3] = SF cultures containing VPA, 7 days

CCCC(CCC)C(=O)O [VPA, valproic acid]
percentage of CD34+CD90+ cells (CB CD34+ cells [1]; 7 days of culture with cytokines plus HDACI): 75.2%±10.7% and 74.2±9.8%
fold expansion of CD34+ cells (CB CD34+ cells [1]; SC conditions, 7 days): 78 fold
fold expansion of CD34+CD90+ cells (CB CD34+ cells [1]; SC conditions, 7 days): 89 fold
fold expansion of CD34+ cells (CB CD34+ cells [1]; SF conditions, 7 days): 213 fold
fold expansion of CD34+CD90+ cells (CB CD34+ cells [1]; SF conditions, 7 days): 20,202 fold
CD34+CD90+ cells expressing CD45RA (CB CD34+ cells [1]; [3]): 1.9%±2.1%
CD34+CD90+ cells expressing CD49f (CB CD34+ cells [1]; [3]): 47.0%±4.4%
B Cells (CD19) (CB CD34+ cells [1]; VPA-treated cells after 7 days): 0.5±0.1%
CD14+ cells (CB CD34+ cells [1]; VPA-treated cells after 7 days): 3.9±1.5%
CD41+ cells (CB CD34+ cells [1]; VPA-treated cells after 7 days): 8.9±2.0%
Glycophorin+ cells (CB CD34+ cells [1]; VPA-treated cells after 7 days): 17.0±5.4%
T Cells (CD3) (CB CD34+ cells [1]; VPA-treated cells after 7 days): 0.2±0.3%
HDAC1 expression relative to b-ACTIN (%) (HDAC1): 25.48 ± 7.78%
HDAC4 expression relative to b-ACTIN (%) (HDAC4): 30.5 ± 9.3%
Frequency of ALDH+ cells (ALDH activity; SC cultures): 41.7 ± 3.3^A %
Frequency of ALDH+CD34+ cells (ALDH activity; SC cultures): 26.1 ± 5.5^A %
Frequency of ALDH+CD34+CD117+ cells (ALDH activity; SC cultures): 29.4 ± 1.4^A %
Frequency of ALDH+ cells (ALDH activity; SF cultures): 86.6 ± 7.4^A %
Frequency of ALDH+CD34+ cells (ALDH activity; SF cultures): 71.1 ± 3.1^A %
Frequency of ALDH+CD34+CD117+ cells (ALDH activity; SF cultures): 51.3 ± 4.0^A %
CD34+CD90+ cells (%) (CB CD34+ cells [2]): 78.6 ± 2.0 %
Total number of cells/well (CB CD34+ cells [2]): 4.0 × 10^6 ± 0.4 × 10^6 cells/well

Source: patent US11261429B2, “Enriched and expanded human cord blood stem cells for treatment of hematological disorders” (ICAHN SCHOOL OF MEDICINE AT MOUNT SINAI, priority 2013, dated 2022)
